Patent publication US20250041438A1, “ANTIBODY-DRUG CONJUGATE” (NOVELTY NOBILITY INC., priority 2022, published 2025)

Assays:
[1] = test system: GIST-T1 cells; type: in vivo; conditions: imatinib 100 mg/kg p.o. D0-D29
[2] = test system: Kasumi-1 cells; test: In vivo efficacy against AML, Kasumi-1 xenograft model; set-up: species or system mice; conditions: day 17; imatinib 100 mg/kg p.o.
Protocol: The experiment was performed in the same manner as in Example 5, except that Kasumi-1 cells (3×10^6/100 […]/head/serum free, RPMI1640 medium) in 50% Matrigel (Corning, 354248, NY, USA) were used. The mice were enrolled in this study on day 29 after transplantation, and the average tumor volume was about 170 mm^3 (day 0).

[3] = test system: SCLC-H526 cells; test: In vivo efficacy against SCLC, SCLC-H526 xenograft model; set-up: species or system mice; conditions: day 21; imatinib 100 mg/kg p.o.
Protocol: In order to evaluate the efficacy of ADC substances against SCLC, an experiment was performed. The SCLC-H526 (NCI-H526, stage E, carcinoma; variant small cell lung cancer, c-Kit overexpression) xenograft model was used.

[4] = test system: HMC 1.2 cells; test: In vivo efficacy against mast cell tumor, HMC 1.2 xenograft model; set-up: species or system mice; conditions: day 17; imatinib 100 mg/kg p.o.
[5] = test system: GIST-430/654 cells; test: In vivo efficacy against imatinib-resistant GIST, GIST-430/654 cell xenograft model; set-up: species or system mice; conditions: day 49; imatinib 100 mg/kg p.o.

Cc1ccc(NC(=O)c2ccc(CN3CCN(C)CC3)cc2)cc1Nc1nccc(-c2cccnc2)n1 [imatinib, reference compound]
tumor weight after sacrifice, decrease compared to the control (vehicle) [1]: about 59% | tumor growth inhibition compared to the control (vehicle), in words [2]: little inhibition of tumor growth | tumor growth inhibition compared to the control (vehicle), in words [3]: little inhibition of tumor growth | tumor growth inhibition, in words [4]: little inhibition of tumor growth | tumor growth inhibition compared to the control (vehicle), in words [5]: little inhibition of tumor growth
